Data as given in patent publication US10653700B2, “Composition comprising a therapeutic agent and a respiratory stimulant and methods for the use thereof” (priority 2015, dated 2020).
Where a name gives a salt, the structure may show the parent alone. Read-outs that look alike come from different tables or passages of the source.

Assays:
[1] = rat, IV, single dose; cited from earlier work
[2] = humans, severe life-threatening side effects; cited from earlier work
[3] = carotid body denervated rats; cited from earlier work
[4] = intravenous; cited from earlier work
[5] = cited from earlier work
[6] = mice; cited from earlier work
[7] = obstructive sleep apnea, four subjects; cited from earlier work
[8] = cited from earlier work; remark: listed apart in the source
[9] = in blood; cited from earlier work
[10] = cited from earlier work; remark: listed apart in the source
[11] = rhesus monkeys; cited from earlier work
[12] = minute volume after intravenous doxapram enantiomers in cynomolgus monkeys; assay type: in vivo; conditions: for behavioral side effects (agitation, seizures): monkeys
[13] = minute volume after intravenous doxapram enantiomers in rats; assay type: in vivo; conditions: for behavioral side effects (agitation, seizures): rats
[14] = lambs; cited from earlier work
[15] = blood pressure in conscious rats; assay type: in vivo; conditions: doses that were moderately respiratory stimulant
AMPA receptor [16] = conditions: human, in vivo; cited from earlier work
AMPA receptor [17] = conditions: in vivo; cited from earlier work
[18] = chronic administration, multi-year trials; cited from earlier work
[19] = cited from earlier work; remark: listed apart in the source
[20] = carotid sinus nerve transection; cited from earlier work
[21] = cited from earlier work; remark: listed apart in the source
[22] = healthy volunteers, room air VE unchanged

## CCN1CC(CCN2CCOCC2)C(c2ccccc2)(c2ccccc2)C1=O (racemic) [doxapram, 1-ethyl-4-[2-(4-morpholinyl)ethyl]-3,3-diphenyl-2-pyrrolidinone monohydrochloride, monohydrate]
[1]
  LD50: 72 mg/kg
[2]
  therapeutic window: 20-40 fold
[3]
  blood pressure: increased blood pressure
[4]
  duration of effect: 5 to 12 min
  half-life: 3.4 h
  onset: 20 to 40 s
  peak plasma time: 1 to 2 min
[5]; 1.5 mg/kg bolus
  T1/2: 3.4 h
  peak in serum: around 3 μg/ml
[5]; 300 mg oral administration
  peak plasma concentration: 0.96 µg/mL
[5]; IV infusion 3.5 mg/kg/hr for 2 hours
  peak plasma concentration: 4.0 µg/mL
[5]; after stop of IV infusion 3.5 mg/kg/hr for 2 hours
  T1/2: 3.9 h
[5]; in vivo
  effect on minute ventilation, time span: 0 to 10 min
  return of minute ventilation to baseline: ≤ 15 min
[6]
  LD50: 85 mg/kg
[7]
  oxyhemoglobin desaturation events: decreased the duration and severity

## COc1ccc2c3c1O[C@H]1C(=O)CC[C@H]4[C@@H](C2)N(C)CC[C@]314 [hydrocodone]
[8]; acute, fatal overdose
  blood and plasma concentration: 100-1,600 μg/L
[8]; people taking the drug therapeutically
  blood and plasma concentration: 5 to 30 µg/L
[8]; recreational users
  blood and plasma concentration: 100 to 200 µg/L
[9]
  bound to protein: 20-50%
[10]; average
  serum half-life: 3.8 h
[10]; in vivo
  metabolism attributed to non-cytochrome-catalyzed reactions: Approximately 40%
[11]
  analgesic potency versus morphine: higher than morphine

## CCN1CC(CCN2CCOCC2)C(c2ccccc2)(c2ccccc2)C1=O (centres unmarked) [GAL-053]
[12]
  behavioral side effects (agitation, seizures): agitation and seizures were restricted to GAL-053
[13]
  behavioral side effects (agitation, seizures): agitation and seizures were restricted to GAL-053

## CCN1CC(CCN2CCOCC2=O)C(c2ccccc2)(c2ccccc2)C1=O (centres unmarked) [AHR 5955, ketodoxapram]
[14]
  activity of metabolite: metabolically active in lambs in a dose dependent fashion

## CCN1CC(CCN2CCOCC2)C(c2ccccc2)(c2ccccc2)C1=O (centres unmarked) [GAL-054]
[15]
  increase in blood pressure above baseline values: 15-20%
[12]; intravenous, drug naïve and opioid challenged cynomolgus monkeys
  minute volume: dose-dependently increased minute volume
[12]
  behavioral side effects (agitation, seizures): minimal behavioral changes
[13]; intravenous, drug naïve and opioid challenged rats
  minute volume: dose-dependently increased minute volume
[13]
  behavioral side effects (agitation, seizures): minimal behavioral changes

## COc1ccc2c3c1O[C@H]1C(=O)CC[C@H]4[C@@H](C2)N(C)CC[C@]314.O=C(O)C(O)C(O)C(=O)O [hydrocodone bitartrate]
[8]; after 15 mg hydrocodone to a human subject, depending on formulation
  maximum plasma concentration (Cmax): 1 to 40

## O=C(c1ccc2nonc2c1)N1CCOCC1 [CX717]
AMPA receptor [16]
  respiratory rate vs. placebo: prevented the fall in respiratory rate
AMPA receptor [17]
  effect on respiratory depression: able to reverse the respiratory depressive effects

## C=CCNc1nc(NCC=C)nc(N2CCN(C(c3ccc(F)cc3)c3ccc(F)cc3)CC2)n1 [almitrine, N,N′-Diallyl-6-[4-(4,4′difluorobenzhydryl)piperazin-1-yl]-1,3,5-triazine-2,4-diyldiamine]
[18]
  weight loss: > 15%
[19]; [22]
  plasma level at which slope of hypercapnic ventilatory response increased: > 200 ng/mL
  plasma level at which slope of hypoxic ventilatory response increased: > 50 ng/mL
[19]; room air, plasma concentrations exceeding approximately 250 μg/ml
  increase in VE above baseline: about 11%
[6]
  LD50: > 200 mg/kg

## CCCNc1nc(NCCC)nc(N(C)OC)n1 [GAL-021]
[20]
  reduction of GAL-021-induced respiratory stimulation: about 85%
[21]; 1-h continuous infusions
  VE (AUE 0-1 h): statistically significant increases
  time to half-maximal effect on VE and ETCO2: < 10 min
[21]; after infusion
  distribution t1/2: 0.5 h
  terminal t1/2: 5 to 7 h
